In data set [1] the test system is human peripheral blood mononuclear cells (PBMCs). Kind of data set: Stimulated release of IL-6 from human PBMCs in vitro (ELISA), Example 1. The data set is classed as cell-based. As to conditions: 24 hours. Here is the method:
PBMCs were isolated from healthy donors through Ficoll-Paque PLUS (GE Healthcare; 11778538) density centrifugation. PBMC were cultured at 2×10^5 cells/well in the absence (unstimulated phosphate-buffered saline (PBS) vehicle controls) or presence of stimulation (lipopolysaccharide (LPS), peptidoglycan, pokeweed mitogen, phytohemagglutinin-L (PHA-L), CpG+IL-15, or Cytostim) in the absence (vehicle) or presence of LMW-DS (ILB®, Tikomed AB, Viken, Sweden, WO 2016/076780) at three concentrations; 60 μg/ml, 200 μg/ml and 600 μg/ml for 24 hours at 37° C., 5% CO2. Following centrifugation, cell culture supernatants were removed and stored at −20° C. awaiting analysis for IL-6 by ELISA. Levels of IL-6 were quantified in the supernatant by ELISA (R&D systems; DY206) according to manufacturer's instructions.

A further data set deals with human purified monocytes. Put plainly: Stimulated IL-6 release from human purified monocytes (ELISA), Example 2. It is filed as cell-based. As to conditions: 24 hours, LMW-DS 60-600 μg/ml, heparin 2.0-20 μg/ml, dexamethasone 3.0 μM, n=10 donors; for LPS-stimulated IL-6 release into the cell culture supernatant: LPS (0.01 ng/ml); for peptidoglycan-stimulated IL-6 release into the cell culture supernatant: peptidoglycan (30 ng/ml). The procedure:
Peripheral blood mononuclear cells (PBMC) were isolated from healthy donors through Ficoll-Paque PLUS (GE Healthcare; 11778538) density centrifugation. Monocytes were purified using the EasySep™ human monocyte enrichment kit (StemCell) that purifies monocytes ‘untouched’ to maintain their phenotype.
Monocytes were cultured in the absence (unstimulated PBS vehicle controls) or presence of stimulation (LPS or peptidoglycan) in the absence (vehicle) or presence of LMW-DS (ILB®, Tikomed AB, Viken, Sweden, WO 2016/076780; three concentrations: 600 μg/ml, 200 μg/ml and 60 μg/ml), heparin (2.0, 6.0 or 20 μg/ml; equivalent to 0.406, 1.218 and 4.06 units/ml; Sigma Aldrich) or dexamethasone (3.0 μM; Sigma Aldrich) for 24 hours at 37° C., 5% CO2. Following centrifugation, cell culture supernatants were removed and stored at −20° C. awaiting analysis for IL-6 by ELISA. Levels of IL-6 were quantified in the supernatant by ELISA (R&D systems) according to manufacturer's instructions.
(In general: An ELISA detects its analyte on a solid surface through an enzyme-linked reagent.)

The subject of a further data set is human PBMCs. Kind of data set: Cytokine secretion from stimulated human PBMCs (5-plex Luminex), Example 3. The data set is classed as cell-based. As to conditions: 24 hours; for stimulated secretion of IL-1β / stimulated secretion of IL-8 / stimulated secretion of TNFα: highest concentration of LMW-DS. The procedure: Example 1 investigated the ability of LMW-DS to modify the secretion of IL-6 from human PBMCs arising from the use of various stimuli. The present study performed a broader analysis of the cell culture supernatants arising from Example 1. Thus, peripheral blood mononuclear cells (PBMC) were isolated from healthy donors through Ficoll-Paque PLUS density centrifugation. The PBMC were cultured at 2×10^5 cells/well in the absence (unstimulated PBS vehicle controls) or presence of stimulation (LPS, peptidoglycan, pokeweed mitogen, PHA-L, CpG+IL-15, or Cytostim) in the absence (vehicle) or presence of LMW-DS (ILB®, Tikomed AB, Viken, Sweden, WO 2016/076780; three concentrations; 600 μg/ml, 200 μg/ml and 60 μg/ml) for 24 hours at 37° C., 5% CO2.
Accordingly, the treatments were as follows for each PBMC donor: • i. Vehicle • ii. Simulation • iii. Stimulation+LMW-DS (60 μg/ml) • iv. Stimulation+LMW-DS (200 μg/ml) • v. Stimulation+LMW-DS (600 μg/ml)
with each assessed in triplicate such that the total numbers of samples were: • 1. LPS; 165 samples (from 11 donors) • 2. Peptidoglycan from Bacillus subtilis; 90 samples (from 6 donors) • 3. PHA-L; 90 samples (from 6 donors) • 4. 0.2 μM CpG+IL-15; 90 samples (from 6 donors) • 5. 1.0 μM CpG+IL-15; 90 samples (from 6 donors) • 6. Pokeweed mitogen; 90 samples (from 6 donors) • 7. 10 μl/ml Cytostim; 90 samples (from 6 donors) • 8. 30 μl/ml Cytostim; 90 samples (from 6 donors) • Total number of supernatant samples from all stimulations (all cell types)=795
Following treatment, cell culture supernatants were removed, centrifuged and stored at −20° C. before thawing for multiplex analysis of various cytokines using the 5-plex human magnetic Luminex assay from R&D systems (Cat. No. LXSAHM-05). Luminex analysis was carried out exactly following manufacturer's protocols.

Another data set has as its system IL-6. Kind of data set: Serum IL-6 in MND/ALS patients treated with LMW-DS (Luminex), Example 4. The data set is classed as in vivo, human. As to conditions: 8 ALS patients; weekly 1.0 mg/kg s.c.; measured at 10 weeks of treatment. The text has this: Serum samples were taken from Motor Neuron Disease (MND)/Amyotrophic Lateral Sclerosis (ALS) patients in a clinical trial (EudraCT Number: 2018-000668-28) prior to and 5, 10 and 24 weeks following treatment with LMW-DS (ILB®, Tikomed AB, Viken, Sweden, WO 2016/076780). Frozen serum samples were thawed and quantified for IL-6 using the Luminex assay system (Bio-Plex 200 system with Bio-Plex Manager software) according to manufacturer's instructions. After an initial screening visit, patients had weekly dosing of a single LMW-DS (ILB®, Tikomed AB, Viken, Sweden, WO 2016/076780) injection of 1.0 mg/kg body weight in saline into the subcutaneous fat of the lower abdomen with a maximum of 1.5 mL at each injection site.
Statistical analysis was performed using the non-parametric Mann-Whitney U test with p<0.05 considered significant.

For data set [2] the following is noted: monoclonal antibodies neutralizing TNFα; cited from earlier work.
Where [3] appears, read: LPS (0.01 ng/ml) stimulated PBMC, 60, 200, 600 μg/ml.
[4] abbreviates: LPS (0.01 ng/ml) stimulated PBMC, 60, 200, 600 μg/ml, listed as Dextran sulfate.
[5] abbreviates: PHA-L (1.0 μg/ml) stimulated PBMC, 60, 200, 600 μg/ml.
Setting [6] is: pokeweed mitogen (1.0 μg/ml) stimulated PBMC, 60, 200, 600 μg/ml.
Where [7] appears, read: pokeweed mitogen (1.0 μg/ml) stimulated PBMC, 60, 200, 600 μg/ml, listed as dextran sulfate.
The mark [8] stands for this setting: Cytostim stimulated PBMC, listed as Dextran sulfate.
Setting [9] is: LPS (0.01 ng/ml) stimulated PBMC.
Setting [10] is: LPS (0.01 ng/ml) stimulated PBMC, listed as Dextran sulfate.
Setting [11] is: PHA-L (1.0 μg/ml) stimulated PBMC.
[12] abbreviates: PHA-L (1.0 μg/ml) stimulated PBMC, listed as Dextran sulfate.
Where [13] appears, read: peptidoglycan (30 ng/ml) stimulated PBMC.
[14] abbreviates: pokeweed mitogen (1.0 μg/ml) stimulated PBMC.

Entries after “also recorded” stand apart in the source; their conditions may differ.

The source of these data is patent US12673070B2, “Treatment of sepsis and hypercytokinemia” (TX MEDIC AB, priority 2020, dated 2026).

Turning to “low molecular weight dextran sulfate [LMW-DS]”, the IL-6 release entry is given as “not generally impacted” in data set [1] (CpG (0.2 μM)+IL-15 (15 ng/ml) stimulated PBMC); “not generally impacted” in data set [1] (Cytostim (10 μl/ml) stimulated PBMC); “inhibited significantly in a concentration-dependent manner” in data set [1] (setting [5]); “no general impact” in data set [1] (higher concentration CpG (1.0 μM)+IL-15 (15 ng/ml) stimulated PBMC); “not significantly affecting” in data set [1] (higher concentration CpG (1.0 μM)+IL-15 (15 ng/ml) stimulated PBMC, listed as dextran sulfate); “no general impact” in data set [1] (higher concentration Cytostim (30 μl/ml) stimulated PBMC). Moreover, the IL-6 release result in data set [1] (higher concentration Cytostim (30 μl/ml) stimulated PBMC, listed as dextran sulfate) was “not significantly affecting”; in data set [1] (setting [6]), “not impacted generally”; in data set [1] (setting [7]) it was “not significantly affecting”. In addition, the “IL-6 release into the cell culture supernatant” value in data set [1] (setting [3]) is “concentration dependent and statistically significant reduction”; in data set [1] (setting [4]), “concentration dependent reduction”; in data set [1] (LPS (0.01 ng/ml) stimulated PBMC, 60, 200, 600 μg/ml, listed as dextran sulfate), “suppress IL-6 cytokine production”; in data set [1] (peptidoglycan (30 ng/ml) stimulated PBMC, 60, 200, 600 μg/ml), “little evidence of LMW-DS, even at the highest concentration tested, of causing a general reduction in IL-6 release”; in data set [1] (peptidoglycan (30 ng/ml) stimulated PBMC, 60, 200, 600 μg/ml, listed as dextran sulfate) it was “not significantly affecting”. Moreover, the entries for the “LPS-stimulated IL-6 release into the cell culture supernatant” value in the data set with human purified monocytes and in the data set on human purified monocytes (listed as Dextran sulfate) were “concentration dependent statistically significant inhibition” and “concentration dependent reduction”, respectively. Besides, the “peptidoglycan-stimulated IL-6 release into the cell culture supernatant” value in the data set with human purified monocytes is given as “concentration dependent statistically significant increase”. Moreover, the “secretion of IL-8” value is “little impact” with human PBMCs (CpG+IL-15 stimulated PBMC), “small reductions” in the data set on human PBMCs (Cytostim stimulated PBMC), “reduction” in the data set with human PBMCs (setting [8]) and “not impacted generally” in the data set with human PBMCs (setting [14]). Further, the IL-10 secretion entry with human PBMCs (Cytostim stimulated PBMC, 60, 200, 600 μg/ml) is on record as “concentration dependent large reduction”; with human PBMCs (Cytostim stimulated PBMC, 60, 200, 600 μg/ml, listed as Dextran sulfate) it was “reduction”; in the data set with human PBMCs (setting [5]), “large, concentration dependent decrease”; with human PBMCs (PHA-L (1.0 μg/ml) stimulated PBMC, 60, 200, 600 μg/ml, listed as Dextran sulfate), “reduction”; in the data set with human PBMCs (setting [6]), “concentration-dependent decrease”; with human PBMCs (setting [7]), “reduction”. Further, the “secretion of IFNγ” value in the data set on human PBMCs (Cytostim stimulated PBMC) is “small reductions”; in the data set on human PBMCs (setting [8]), “reduction”; in the data set with human PBMCs (setting [3]) it was “concentration dependent but small reduction”; in the data set on human PBMCs (setting [4]) it was “reduction”; in the data set on human PBMCs (setting [14]) it was “not impacted generally”. Moreover, the “secretion of IL-1β” value is “small reductions” in the data set on human PBMCs (Cytostim stimulated PBMC) and “not impacted generally” with human PBMCs (setting [14]). For the same substance, the “secretion of TNFα” value in the data set with human PBMCs (Cytostim stimulated PBMC) is on record as “small reductions”; with human PBMCs (setting [8]), “reduction”; with human PBMCs (setting [14]), “not impacted generally”. For the same substance, the “secretion of IL-10” value with human PBMCs (setting [3]) is on record as “concentration dependent but small reduction”; in the data set on human PBMCs (setting [4]), “reduction”. Further, the “stimulated secretion of IL-1β” value in the data set with human PBMCs (setting [9]) is “modest reduction”; with human PBMCs (setting [10]) it was “reduction”. Besides, the entries for the “stimulated secretion of IL-8” value in the data set with human PBMCs (setting [9]) and in the data set on human PBMCs (setting [10]) were “modest reduction” and “reduction”, respectively. The “stimulated secretion of TNFα” value is “modest reduction” in the data set with human PBMCs (setting [9]) and “reduction” in the data set with human PBMCs (setting [10]). Moreover, the “stimulated release of IFNγ” value in the data set on human PBMCs (setting [11]) is reported as “small decreases”; in the data set with human PBMCs (setting [12]), “reduction”. Further, in the data set on human PBMCs (setting [11]), the “stimulated release of IL-8” value was “small decreases”. In addition, the figures for the “stimulated release of TNFα” value in the data set on human PBMCs (setting [11]) and in the data set with human PBMCs (setting [12]) were “small decreases” and “reduction”, respectively. Besides, in the data set on human PBMCs (setting [13]), the IL-1β secretion entry is given as “associated increases”. In addition, in the data set with human PBMCs (setting [13]), the TNFα secretion result is “associated increases”. In addition, in the data set on human PBMCs (peptidoglycan (30 ng/ml) stimulated PBMC, up to highest concentration tested), the “cytokine release (IL-8)” value was “little evidence of LMW-DS, even at the highest concentration tested, of causing a general reduction in cytokine release”. In addition, the “serum IL-6 levels as % of Pre-LMW-DS levels” value with IL-6 was “statistically significant decrease”.

With infliximab, in data set [2], the half-life entry was “around 14 days”.

In the case of heparin [reference compound], in the data set with human purified monocytes, the “LPS-stimulated IL-6 release into the cell culture supernatant” value was “concentration dependent statistically significant enhancement; also recorded: did not significantly suppress IL-6 levels in LPS activated monocytes but rather increased the levels” and the “peptidoglycan-stimulated IL-6 release into the cell culture supernatant” value was “enhancement was mirrored to some extent by heparin although the trend did not reach statistical significance”.

For the substance certolizumab, in data set [2], the half-life entry is recorded as “around 14 days”.

With adalimumab, the half-life entry in data set [2] is recorded as “around 14 days”.
